From patent US5677346A, “Treating urinary incontinence using (S)-desethyloxybutynin” (Sepracor, Inc., priority 1995, dated 1997)

Assays:
[1] = biological target: Ca channel (T + L, verapamil site); assay: Binding to calcium channel, verapamil site ([3H]D 888, rat cerebral cortex); details: for percent inhibition of specific radioligand binding, Calcium (verapamil): Table 8, 10^-5 M
[2] = biological target: T1, human recombinant M2 muscarinic receptor (Homo sapiens, UniProt P08172); assay: biochemical; type: binding; details: for inhibition at 10 µM: read-out: percent inhibition of specific radioligand binding M2H 10^-5 M; for inhibition at 0.1 µM: read-out: percent inhibition of specific radioligand binding M2H 10^-7 M
T1 construct: made in house; host or cells: SF9 insect cells infected with baculovirus (membranes)
T1 sequence (P08172 1-466): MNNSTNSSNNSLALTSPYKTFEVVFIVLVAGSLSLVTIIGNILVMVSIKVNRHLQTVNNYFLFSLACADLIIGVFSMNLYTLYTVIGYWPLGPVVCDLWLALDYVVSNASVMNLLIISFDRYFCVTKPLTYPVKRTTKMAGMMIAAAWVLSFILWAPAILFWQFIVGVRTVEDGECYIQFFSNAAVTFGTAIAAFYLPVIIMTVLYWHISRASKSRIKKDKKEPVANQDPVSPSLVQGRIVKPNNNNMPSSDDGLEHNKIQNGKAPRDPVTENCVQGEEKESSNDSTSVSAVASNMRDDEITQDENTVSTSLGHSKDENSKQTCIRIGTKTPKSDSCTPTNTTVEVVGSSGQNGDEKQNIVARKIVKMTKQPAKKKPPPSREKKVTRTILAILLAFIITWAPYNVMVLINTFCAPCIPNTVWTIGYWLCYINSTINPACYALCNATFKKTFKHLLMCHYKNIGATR

[3] = biological target: T2, human recombinant M4 muscarinic receptor (Homo sapiens, UniProt P08173); assay: biochemical; type: binding; details: for inhibition at 10 µM: read-out: percent inhibition of specific radioligand binding M4H 10^-5 M; for inhibition at 0.1 µM: read-out: percent inhibition of specific radioligand binding M4H 10^-7 M; for inhibition at 0.001 µM: read-out: percent inhibition of specific radioligand binding M4H 10^-9 M
T2 construct: made in house; host or cells: SF9 insect cells infected with baculovirus (membranes)
T2 sequence (P08173 1-479): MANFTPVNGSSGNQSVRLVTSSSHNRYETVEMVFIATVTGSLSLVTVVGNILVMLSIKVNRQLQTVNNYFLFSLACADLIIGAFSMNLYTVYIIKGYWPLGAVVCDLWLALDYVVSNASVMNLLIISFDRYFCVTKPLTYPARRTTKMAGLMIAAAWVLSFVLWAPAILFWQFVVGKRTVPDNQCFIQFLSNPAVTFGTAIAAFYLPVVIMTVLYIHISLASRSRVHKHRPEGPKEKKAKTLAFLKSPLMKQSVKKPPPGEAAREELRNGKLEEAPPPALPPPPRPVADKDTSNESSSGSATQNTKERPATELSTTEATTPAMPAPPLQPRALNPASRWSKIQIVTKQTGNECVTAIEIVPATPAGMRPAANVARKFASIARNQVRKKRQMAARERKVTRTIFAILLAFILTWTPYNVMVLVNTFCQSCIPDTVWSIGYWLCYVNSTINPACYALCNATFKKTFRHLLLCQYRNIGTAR

[4] = system: Ca channel (T + L, diltiazem site); type: binding, rat; details: for percent inhibition of specific radioligand binding, Calcium (diltiazem): Table 8, 10^-5 M
[5] = biological target: T3, bladder muscarinic receptors (guinea pig bladder smooth muscle strips) (Cavia porcellus, UniProt H0W1Z3); assay: Carbachol-induced contraction of isolated bladder strips (antimuscarinic activity); details: for Slope (Schild regression): Table 9, mean ± SE
T3 construct: isolated strips of guinea pig bladder smooth muscle; from tissue; host or cells: urinary bladder strips of male Hartley guinea pigs

[6] = system: guinea pig bladder smooth muscle strips; assay: Potassium-induced contraction of isolated bladder strips (spasmolytic activity)
[7] = system: human muscarinic receptor subtypes M1-M4; assay: Binding to human muscarinic receptor subtypes M1-M4, overall result
[8] = system: calcium channel (diltiazem and verapamil sites); assay: Binding at calcium channels, overall result; set-up: species or system rat; details: 10^-5 M
[9] = Table 10, 137.7 mM K+, 60 min exposure, n = 3, * significantly different from untreated (< 0.01)

T3 sequence (H0W1Z3 1-590): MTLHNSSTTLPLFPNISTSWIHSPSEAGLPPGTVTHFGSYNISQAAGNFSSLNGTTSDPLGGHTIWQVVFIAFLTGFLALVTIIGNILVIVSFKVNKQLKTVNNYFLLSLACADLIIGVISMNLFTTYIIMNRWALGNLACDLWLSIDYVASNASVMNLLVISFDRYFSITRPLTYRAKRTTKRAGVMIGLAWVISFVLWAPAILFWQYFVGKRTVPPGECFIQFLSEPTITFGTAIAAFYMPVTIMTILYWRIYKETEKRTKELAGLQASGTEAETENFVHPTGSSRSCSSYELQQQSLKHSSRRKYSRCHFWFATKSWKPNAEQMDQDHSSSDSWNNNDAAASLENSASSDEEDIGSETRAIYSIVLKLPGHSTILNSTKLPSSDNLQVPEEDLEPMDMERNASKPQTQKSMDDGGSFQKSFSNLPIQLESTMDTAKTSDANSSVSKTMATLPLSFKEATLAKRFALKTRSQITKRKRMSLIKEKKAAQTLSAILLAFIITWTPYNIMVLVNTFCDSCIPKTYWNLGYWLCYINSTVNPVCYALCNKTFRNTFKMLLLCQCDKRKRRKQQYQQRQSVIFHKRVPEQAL

| Structure (SMILES) | IC50 [2] | inhibition at 0.1 µM [2] | inhibition at 10 µM [3] | inhibition at 0.1 µM [3] | percent inhibition of specific radioligand binding, Calcium (diltiazem) [4] | percent inhibition of specific radioligand binding, Calcium (verapamil) [1] | Kb [5] | Slope (Schild regression) [5] | Mean % pretreatment ± SE (magnitude of contraction induced by 137.7 mM K+ after exposure to compound / before) [6, 9] | other results |
| --- | --- | --- | --- | --- | --- | --- | --- | --- | --- | --- |
| COc1ccc(CCN(C)CCCC(C#N)(c2cc(OC)c(OC)c(OC)c2)C(C)C)cc1OC (racemic) [D600, reference compound] |  |  |  |  |  |  |  |  |  | IC50 ([1]; Table 5, reference compound, 8 concentrations, read-out: Ref. Compound IC50, Calcium (verapamil)): 36.4 nM |
| CCNCC#CCOC(=O)C(O)(c1ccccc1)C1CCCCC1.Cl (racemic) [RS-DEO, 4-(Ethylamino)-2-butynyl α-cyclohexyl-α-hydroxybenzeneacetate hydrochloride salt] | 7 nM | 94% | 95% | 99% | 88% | 89% | 2.82 nM | 1.35 ± 0.25 | 47 ± 8% | inhibition at 10 µM [2]: 99%; inhibition at 0.001 µM [3]: 34% |
| CCN(CC)CC#CCOC(=O)C(O)(c1ccccc1)C1CCCCC1 (racemic) [RS-OXY, 4-(diethylamino)-2-butynyl α-cyclohexyl-α-hydroxybenzeneacetate, reference compound] |  |  |  |  |  |  |  |  | 20 ± 1% |  |
| CCNCC#CCOC(=O)[C@](O)(c1ccccc1)C1CCCCC1.Cl [R-DEO, 4-(Ethylamino)-2-butynyl (R)-α-cyclohexyl-α-hydroxybenzeneacetate hydrochloride salt] | 14.7 nM | 97% | 99% | 100% | 86% | 96% | 0.912 nM | 1.16 ± 0.11 | 36 ± 5% | inhibition at 10 µM [2]: 102%; inhibition at 0.001 µM ([2]; read-out: percent inhibition of specific radioligand binding M2H 10^-9 M): 21%; inhibition at 0.001 µM [3]: 58% |
| CCN(CC)CC#CCOC(=O)[C@](O)(c1ccccc1)C1CCCCC1 [R-OXY, reference compound] |  |  |  |  |  |  |  |  | 32 ± 8% |  |
| CCNCC#CCOC(=O)[C@@](O)(c1ccccc1)C1CCCCC1.Cl [S-DEO, 4-(Ethylamino)-2-butynyl (S)-α-cyclohexyl-α-hydroxybenzeneacetate hydrochloride salt] | 177 nM | 36% | 99% | 43% | 72% | 76% | 49 nM | 0.87 ± 0.11 |  | affinity for muscarinic receptor subtypes (in words) [7]: less affinity for muscarinic receptor subtypes than either R- or racemic DEO; calcium entry blocking activity (in words) [8]: calcium entry blocking activity similar to that of R- and racemic DEO; antagonism of bladder muscarinic receptors (in words) ([5]; carbachol-induced contraction): less potent antagonists of bladder muscarinic receptors than are R- and racemic OXY and R- and racemic DEO |
| CCN(CC)CC#CCOC(=O)[C@@](O)(c1ccccc1)C1CCCCC1 [S-OXY, 4-(diethylamino)-2-butynyl α-cyclohexyl-α-hydroxybenzeneacetate] |  |  |  |  |  |  |  |  |  | Mean % pretreatment ± SE (magnitude of contraction induced by 137.7 mM K+ after exposure to compound / before) ([6]; guinea pig, bladder strips, 60 min): 26 ± 9% |
| COc1ccc([C@@H]2Sc3ccccc3N(CCN(C)C)C(=O)[C@@H]2OC(C)=O)cc1 [diltiazem, reference compound] |  |  |  |  |  |  |  |  |  | IC50 ([4]; Table 5, reference compound, 8 concentrations, read-out: Ref. Compound IC50, Calcium (diltiazem)): 55.8 nM |
